Measured values as given in the NIST ThermoML archive (doi:10.1016/j.fluid.2013.06.021).
± gives the expanded uncertainty stated by the source.

Test: xn = mol fraction of the nth substance listed
Conditions: 101 kPa, Liquid; for speed of sound: Sing-around technique in a fixed-path interferometer; for mass density: Vibrating tube method; for viscosity: Capillary tube (Ostwald / Ubbelohde) method

## CCCCOCCO [2-butoxyethan-1-ol] + CCCCO
293.15 K, x1 = 0.0516
  speed of sound: 1262.2 ± 0.71 m/s
  mass density: 816.39 ± 0.12 kg/m3
293.15 K, x1 = 0.1011
  speed of sound: 1266.6 ± 0.71 m/s
  mass density: 822.44 ± 0.11 kg/m3
293.15 K, x1 = 0.1535
  speed of sound: 1271.1 ± 0.71 m/s
  mass density: 828.64 ± 0.11 kg/m3
293.15 K, x1 = 0.2027
  speed of sound: 1275.2 ± 0.71 m/s
  mass density: 834.27 ± 0.11 kg/m3
293.15 K, x1 = 0.2537
  speed of sound: 1279.2 ± 0.71 m/s
  mass density: 839.84 ± 0.11 kg/m3
293.15 K, x1 = 0.3027
  speed of sound: 1282.9 ± 0.71 m/s
  mass density: 844.99 ± 0.11 kg/m3
293.15 K, x1 = 0.4
  speed of sound: 1289.8 ± 0.71 m/s
  mass density: 854.57 ± 0.11 kg/m3
293.15 K, x1 = 0.5055
  speed of sound: 1296.7 ± 0.71 m/s
  mass density: 864.12 ± 0.1 kg/m3
293.15 K, x1 = 0.6054
  speed of sound: 1302.5 ± 0.71 m/s
  mass density: 872.48 ± 0.097 kg/m3
293.15 K, x1 = 0.7025
  speed of sound: 1307.9 ± 0.71 m/s
  mass density: 880.07 ± 0.091 kg/m3
293.15 K, x1 = 0.8042
  speed of sound: 1313.2 ± 0.71 m/s
  mass density: 887.49 ± 0.086 kg/m3
293.15 K, x1 = 0.8552
  speed of sound: 1315.9 ± 0.71 m/s
  mass density: 891.03 ± 0.084 kg/m3
293.15 K, x1 = 0.906
  speed of sound: 1318.5 ± 0.71 m/s
  mass density: 894.44 ± 0.082 kg/m3
293.15 K, x1 = 0.9526
  speed of sound: 1320.9 ± 0.71 m/s
  mass density: 897.48 ± 0.081 kg/m3
298.15 K, x1 = 0.0516
  viscosity: 2.586 ± 0.12 mPa·s
  speed of sound: 1245.2 ± 0.71 m/s
  mass density: 812.543 ± 0.12 kg/m3
298.15 K, x1 = 0.1011
  viscosity: 2.553 ± 0.12 mPa·s
  speed of sound: 1249.7 ± 0.71 m/s
  mass density: 818.58 ± 0.12 kg/m3
298.15 K, x1 = 0.1535
  viscosity: 2.536 ± 0.12 mPa·s
  speed of sound: 1254.2 ± 0.71 m/s
  mass density: 824.722 ± 0.11 kg/m3
298.15 K, x1 = 0.2027
  viscosity: 2.524 ± 0.12 mPa·s
  speed of sound: 1258.3 ± 0.71 m/s
  mass density: 830.281 ± 0.11 kg/m3
298.15 K, x1 = 0.2537
  viscosity: 2.516 ± 0.12 mPa·s
  speed of sound: 1262.3 ± 0.71 m/s
  mass density: 835.832 ± 0.11 kg/m3
298.15 K, x1 = 0.3028
  viscosity: 2.516 ± 0.12 mPa·s
298.15 K, x1 = 0.4
  viscosity: 2.527 ± 0.12 mPa·s
  speed of sound: 1272.9 ± 0.7 m/s
  mass density: 850.503 ± 0.11 kg/m3
298.15 K, x1 = 0.5055
  viscosity: 2.555 ± 0.12 mPa·s
  speed of sound: 1279.7 ± 0.7 m/s
  mass density: 860.043 ± 0.11 kg/m3
298.15 K, x1 = 0.6054
  viscosity: 2.592 ± 0.12 mPa·s
  speed of sound: 1285.6 ± 0.7 m/s
  mass density: 868.393 ± 0.099 kg/m3
298.15 K, x1 = 0.7025
  viscosity: 2.645 ± 0.12 mPa·s
  speed of sound: 1290.9 ± 0.7 m/s
  mass density: 875.94 ± 0.093 kg/m3
298.15 K, x1 = 0.8042
  viscosity: 2.703 ± 0.12 mPa·s
  speed of sound: 1296.2 ± 0.7 m/s
  mass density: 883.317 ± 0.088 kg/m3
298.15 K, x1 = 0.8552
  viscosity: 2.743 ± 0.12 mPa·s
  speed of sound: 1298.8 ± 0.7 m/s
  mass density: 886.83 ± 0.086 kg/m3
298.15 K, x1 = 0.906
  viscosity: 2.785 ± 0.12 mPa·s
  speed of sound: 1301.4 ± 0.7 m/s
  mass density: 890.248 ± 0.084 kg/m3
298.15 K, x1 = 0.9526
  viscosity: 2.835 ± 0.12 mPa·s
  speed of sound: 1303.8 ± 0.7 m/s
  mass density: 893.29 ± 0.082 kg/m3
298.15 K, x1 = 0.3027
  speed of sound: 1266.1 ± 0.71 m/s
  mass density: 840.96 ± 0.11 kg/m3
303.15 K, x1 = 0.0516
  viscosity: 2.269 ± 0.12 mPa·s
  speed of sound: 1228.5 ± 0.7 m/s
  mass density: 808.67 ± 0.12 kg/m3
303.15 K, x1 = 0.1011
  viscosity: 2.243 ± 0.12 mPa·s
  speed of sound: 1233 ± 0.7 m/s
  mass density: 814.69 ± 0.12 kg/m3
303.15 K, x1 = 0.1535
  viscosity: 2.235 ± 0.12 mPa·s
  speed of sound: 1237.5 ± 0.7 m/s
  mass density: 820.82 ± 0.11 kg/m3
303.15 K, x1 = 0.2027
  viscosity: 2.234 ± 0.12 mPa·s
  speed of sound: 1241.5 ± 0.7 m/s
  mass density: 826.35 ± 0.11 kg/m3
303.15 K, x1 = 0.2537
  viscosity: 2.229 ± 0.12 mPa·s
  speed of sound: 1245.5 ± 0.7 m/s
  mass density: 831.87 ± 0.11 kg/m3
303.15 K, x1 = 0.3028
  viscosity: 2.235 ± 0.12 mPa·s
303.15 K, x1 = 0.4
  viscosity: 2.255 ± 0.12 mPa·s
  speed of sound: 1255.9 ± 0.7 m/s
  mass density: 846.49 ± 0.11 kg/m3
303.15 K, x1 = 0.5055
  viscosity: 2.303 ± 0.12 mPa·s
  speed of sound: 1262.6 ± 0.7 m/s
  mass density: 855.99 ± 0.11 kg/m3
303.15 K, x1 = 0.6054
  viscosity: 2.345 ± 0.12 mPa·s
  speed of sound: 1268.6 ± 0.7 m/s
  mass density: 864.3 ± 0.1 kg/m3
303.15 K, x1 = 0.7025
  viscosity: 2.401 ± 0.12 mPa·s
  speed of sound: 1274 ± 0.7 m/s
  mass density: 871.83 ± 0.094 kg/m3
303.15 K, x1 = 0.8042
  viscosity: 2.475 ± 0.12 mPa·s
  speed of sound: 1279.4 ± 0.7 m/s
  mass density: 879.17 ± 0.089 kg/m3
303.15 K, x1 = 0.8552
  viscosity: 2.518 ± 0.12 mPa·s
  speed of sound: 1282 ± 0.69 m/s
  mass density: 882.67 ± 0.087 kg/m3
303.15 K, x1 = 0.906
  viscosity: 2.564 ± 0.12 mPa·s
  speed of sound: 1284.5 ± 0.69 m/s
  mass density: 886.07 ± 0.085 kg/m3
303.15 K, x1 = 0.9526
  viscosity: 2.607 ± 0.12 mPa·s
  speed of sound: 1286.7 ± 0.69 m/s
  mass density: 889.1 ± 0.084 kg/m3
303.15 K, x1 = 0.3027
  speed of sound: 1249.1 ± 0.7 m/s
  mass density: 836.98 ± 0.11 kg/m3
308.15 K, x1 = 0.0516
  viscosity: 2.029 ± 0.12 mPa·s
  speed of sound: 1211.8 ± 0.69 m/s
  mass density: 804.78 ± 0.12 kg/m3
308.15 K, x1 = 0.1011
  viscosity: 2.008 ± 0.12 mPa·s
  speed of sound: 1216.3 ± 0.69 m/s
  mass density: 810.77 ± 0.12 kg/m3
308.15 K, x1 = 0.1535
  viscosity: 1.994 ± 0.12 mPa·s
  speed of sound: 1220.7 ± 0.69 m/s
  mass density: 816.87 ± 0.12 kg/m3
308.15 K, x1 = 0.2027
  viscosity: 1.98 ± 0.12 mPa·s
  speed of sound: 1224.7 ± 0.69 m/s
  mass density: 822.39 ± 0.11 kg/m3
308.15 K, x1 = 0.2537
  viscosity: 1.966 ± 0.12 mPa·s
  speed of sound: 1228.7 ± 0.69 m/s
  mass density: 827.9 ± 0.11 kg/m3
308.15 K, x1 = 0.3028
  viscosity: 1.965 ± 0.12 mPa·s
308.15 K, x1 = 0.4
  viscosity: 1.968 ± 0.12 mPa·s
  speed of sound: 1239.1 ± 0.69 m/s
  mass density: 842.45 ± 0.11 kg/m3
308.15 K, x1 = 0.5055
  viscosity: 1.981 ± 0.12 mPa·s
  speed of sound: 1245.9 ± 0.69 m/s
  mass density: 851.91 ± 0.11 kg/m3
308.15 K, x1 = 0.6054
  viscosity: 2.006 ± 0.12 mPa·s
  speed of sound: 1251.9 ± 0.69 m/s
  mass density: 860.19 ± 0.1 kg/m3
308.15 K, x1 = 0.7025
  viscosity: 2.045 ± 0.12 mPa·s
  speed of sound: 1257.4 ± 0.69 m/s
  mass density: 867.68 ± 0.096 kg/m3
308.15 K, x1 = 0.8042
  viscosity: 2.106 ± 0.12 mPa·s
  speed of sound: 1262.8 ± 0.69 m/s
  mass density: 875.01 ± 0.091 kg/m3
308.15 K, x1 = 0.8552
  viscosity: 2.138 ± 0.12 mPa·s
  speed of sound: 1265.3 ± 0.69 m/s
  mass density: 878.5 ± 0.089 kg/m3
308.15 K, x1 = 0.906
  viscosity: 2.175 ± 0.12 mPa·s
  speed of sound: 1267.8 ± 0.69 m/s
  mass density: 881.88 ± 0.087 kg/m3
308.15 K, x1 = 0.9526
  viscosity: 2.204 ± 0.12 mPa·s
  speed of sound: 1270 ± 0.69 m/s
  mass density: 884.89 ± 0.085 kg/m3
308.15 K, x1 = 0.3027
  speed of sound: 1232.3 ± 0.69 m/s
  mass density: 832.98 ± 0.11 kg/m3
313.15 K, x1 = 0.0516
  speed of sound: 1195.2 ± 0.69 m/s
  mass density: 800.853 ± 0.12 kg/m3
313.15 K, x1 = 0.1011
  speed of sound: 1199.7 ± 0.69 m/s
  mass density: 806.824 ± 0.12 kg/m3
313.15 K, x1 = 0.1535
  speed of sound: 1204.1 ± 0.69 m/s
  mass density: 812.87 ± 0.12 kg/m3
313.15 K, x1 = 0.2027
  speed of sound: 1208.2 ± 0.69 m/s
  mass density: 818.34 ± 0.12 kg/m3
313.15 K, x1 = 0.2537
  speed of sound: 1212.2 ± 0.69 m/s
  mass density: 823.81 ± 0.12 kg/m3
313.15 K, x1 = 0.3027
  speed of sound: 1215.9 ± 0.69 m/s
  mass density: 828.88 ± 0.11 kg/m3
313.15 K, x1 = 0.4
  speed of sound: 1222.7 ± 0.69 m/s
  mass density: 838.34 ± 0.11 kg/m3
313.15 K, x1 = 0.5055
  speed of sound: 1229.5 ± 0.69 m/s
  mass density: 847.79 ± 0.11 kg/m3
313.15 K, x1 = 0.6054
  speed of sound: 1235.4 ± 0.69 m/s
  mass density: 856.04 ± 0.1 kg/m3
313.15 K, x1 = 0.7025
  speed of sound: 1240.7 ± 0.68 m/s
  mass density: 863.5 ± 0.097 kg/m3
313.15 K, x1 = 0.8042
  speed of sound: 1246 ± 0.68 m/s
  mass density: 870.78 ± 0.092 kg/m3
313.15 K, x1 = 0.8552
  speed of sound: 1248.5 ± 0.68 m/s
  mass density: 874.26 ± 0.09 kg/m3
313.15 K, x1 = 0.906
  speed of sound: 1251 ± 0.68 m/s
  mass density: 877.63 ± 0.089 kg/m3
313.15 K, x1 = 0.9526
  speed of sound: 1253.2 ± 0.68 m/s
  mass density: 880.64 ± 0.087 kg/m3
